In ChEMBL document CHEMBL1201862, “PubChem BioAssay data set” (2004):
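The compound was tested at five concentrations on cells cultured in 96-well plates, with a 48-hour exposure period. Abbreviation: GI50, concentration required for 50% inhibition of growth.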 Active and inactive are the calls of the source. Cut-off read from the data, not from the text of the source: active = GI50 up to about 1.1 µM and inactive = higher.

Legend:
Experiment in all cases: NCI tumour cell line growth inhibition, 48 h
A549 = system: A549
ACHN = system: ACHN
CCRF-CEM = system: CCRF-CEM
COLO 205 = system: COLO 205
DMS-114 = system: DMS-114
DMS-273 = system: DMS-273
EKVX = system: EKVX
HCC 2998 = system: HCC 2998
HCT-116 = system: HCT-116
HCT-15 = system: HCT-15
HL-60 = system: HL-60
HOP-18 = system: HOP-18
HOP-62 = system: HOP-62
HOP-92 = system: HOP-92
HT-29 = system: HT-29
IGROV-1 = system: IGROV-1
K562 = system: K562
KM-20L2 = system: KM-20L2
KM12 = system: KM12
LOX IMVI = system: LOX IMVI
LXFL 529 = system: LXFL 529
M14 = system: M14
M19-MEL = system: M19-MEL
MOLT-4 = system: MOLT-4
NCI-H23 = system: NCI-H23
NCI-H460 = system: NCI-H460
OVCAR-3 = system: OVCAR-3
OVCAR-4 = system: OVCAR-4
OVCAR-5 = system: OVCAR-5
OVCAR-8 = system: OVCAR-8
RPMI-8226 = system: RPMI-8226
RXF 393 = system: RXF 393
SF-268 = system: SF-268
SF-539 = system: SF-539
SK-MEL-28 = system: SK-MEL-28
SK-MEL-2 = system: SK-MEL-2
SK-MEL-5 = system: SK-MEL-5
SN12C = system: SN12C
SNB-19 = system: SNB-19
SNB-75 = system: SNB-75
SNB-78 = system: SNB-78
SR = system: SR
SW-620 = system: SW-620
TK-10 = system: TK-10
U-251 = system: U-251
UACC-257 = system: UACC-257
UACC-62 = system: UACC-62
UO-31 = system: UO-31
A498 = system: A498
DLD-1 = system: DLD-1
Malme-3M = system: Malme-3M
NCI-H226 = system: NCI-H226
NCI-H522 = system: NCI-H522
SF-295 = system: SF-295
SK-OV-3 = system: SK-OV-3
786-0 = system: 786-0
BT-549 = system: BT-549
CAKI-1 = system: CAKI-1
DU-145 = system: DU-145
Hs-578T = system: Hs-578T
MCF7 = system: MCF7
MDA-MB-231 = system: MDA-MB-231
MDA-MB-435 = system: MDA-MB-435
MDA-N = system: MDA-N
NCI/ADR-RES = system: NCI/ADR-RES
PC-3 = system: PC-3
T47D = system: T47D

For `Cc1cc(O)nc(NN2C(Cl)C(=O)C2c2cccc(Cl)c2)n1` (configuration not stated), the GI50 (A549) was 47.8 µM (inactive), the GI50 (ACHN) was 30 µM (inactive) and the GI50 (CCRF-CEM) was 6.49 µM (inactive). For the same compound, the GI50 (COLO 205) was > 10 µM (inactive), the GI50 (DMS-114) was 22.2 µM (inactive) and the GI50 (DMS-273) was 17.1 µM (inactive). For the same compound, the GI50 (EKVX) was 36.6 µM (inactive), the GI50 (HCC 2998) was 31.2 µM (inactive) and the GI50 (HCT-116) was > 10 µM (inactive). For the same compound, the GI50 (HCT-15) was 17.4 µM, the GI50 (HL-60) was 16 µM (inactive) and the GI50 (HOP-18) was 24 µM (inactive). The GI50 (HOP-62) was 27.1 µM (inactive), the GI50 (HOP-92) was 20.6 µM (inactive) and the GI50 (HT-29) was 23.4 µM (inactive). For the same compound, the GI50 (IGROV-1) was 14 µM (inactive), the GI50 (K562) was 17.6 µM (inactive) and the GI50 (KM-20L2) was 32.9 µM (inactive). For the same compound, the GI50 (KM12) was 21.7 µM (inactive), the GI50 (LOX IMVI) was 14.4 µM (inactive) and the GI50 (LXFL 529) was > 10 µM (inactive). For the same compound, the GI50 (M14) was 17.4 µM (inactive), the GI50 (M19-MEL) was 33.9 µM (inactive) and the GI50 (MOLT-4) was 13.8 µM (inactive). The GI50 (NCI-H23) was 20.1 µM (inactive), the GI50 (NCI-H460) was 18.4 µM (inactive) and the GI50 (OVCAR-3) was 12.5 µM (inactive). For the same compound, the GI50 (OVCAR-4) was 28.2 µM (inactive), the GI50 (OVCAR-5) was 58.2 µM (inactive) and the GI50 (OVCAR-8) was 31.1 µM (inactive). For the same compound, the GI50 (RPMI-8226) was 12.7 µM (inactive), the GI50 (RXF 393) was 8.18 µM (inactive) and the GI50 (SF-268) was 18.5 µM (inactive). The GI50 (SF-539) was 17.2 µM (inactive), the GI50 (SK-MEL-28) was 22.4 µM (inactive) and the GI50 (SK-MEL-2) was 16.7 µM (inactive). The GI50 (SK-MEL-5) was 18.4 µM (inactive), the GI50 (SN12C) was 20.5 µM (inactive) and the GI50 (SNB-19) was 27.9 µM (inactive). For the same compound, the GI50 (SNB-75) was 20.8 µM (inactive), the GI50 (SNB-78) was 22.2 µM (inactive) and the GI50 (SR) was 16 µM (inactive). For the same compound, the GI50 (SW-620) was 38 µM (inactive), the GI50 (TK-10) was 36.1 µM (inactive) and the GI50 (U-251) was 30.5 µM (inactive). For the same compound, the GI50 (UACC-257) was 32.8 µM (inactive), the GI50 (UACC-62) was 23.1 µM (inactive) and the GI50 (UO-31) was 24.2 µM (inactive).

`O=Cc1ccccc1CCn1c(=O)c2cc3c(=O)n(CCc4ccccc4C=O)c(=O)c3cc2c1=O` was tested, and the GI50 (A498) was > 100 µM (inactive), the GI50 (A549) was > 100 µM (inactive) and the GI50 (ACHN) was > 100 µM (inactive). For the same compound, the GI50 (CCRF-CEM) was > 100 µM (inactive), the GI50 (DLD-1) was > 100 µM (inactive) and the GI50 (DMS-114) was > 100 µM (inactive). The GI50 (DMS-273) was > 100 µM (inactive), the GI50 (HCT-116) was > 100 µM (inactive) and the GI50 (HCT-15) was greater than 100 µM. For the same compound, the GI50 (HL-60) was > 100 µM (inactive), the GI50 (HT-29) was > 100 µM (inactive) and the GI50 (IGROV-1) was > 100 µM (inactive). For the same compound, the GI50 (K562) was > 100 µM (inactive), the GI50 (KM12) was > 100 µM (inactive) and the GI50 (LOX IMVI) was > 100 µM (inactive). The GI50 (LXFL 529) was > 100 µM (inactive), the GI50 (MOLT-4) was > 100 µM (inactive) and the GI50 (Malme-3M) was > 100 µM (inactive). For the same compound, the GI50 (NCI-H226) was > 100 µM (inactive), the GI50 (NCI-H23) was > 100 µM (inactive) and the GI50 (NCI-H460) was > 100 µM (inactive). The GI50 (NCI-H522) was > 100 µM (inactive), the GI50 (OVCAR-3) was > 100 µM (inactive) and the GI50 (OVCAR-4) was > 100 µM (inactive). For the same compound, the GI50 (OVCAR-8) was > 100 µM (inactive), the GI50 (RXF 393) was > 100 µM (inactive) and the GI50 (SF-268) was > 100 µM (inactive). For the same compound, the GI50 (SF-295) was > 100 µM (inactive), the GI50 (SF-539) was > 100 µM (inactive) and the GI50 (SK-MEL-28) was > 100 µM (inactive). The GI50 (SK-MEL-2) was > 100 µM (inactive), the GI50 (SK-MEL-5) was > 100 µM (inactive) and the GI50 (SK-OV-3) was > 100 µM (inactive). For the same compound, the GI50 (SN12C) was > 100 µM (inactive), the GI50 (SNB-19) was > 100 µM (inactive) and the GI50 (SNB-75) was > 100 µM (inactive). The GI50 (SNB-78) was > 100 µM (inactive), the GI50 (SW-620) was > 100 µM (inactive) and the GI50 (TK-10) was > 100 µM (inactive). For the same compound, the GI50 (U-251) was > 100 µM (inactive), the GI50 (UACC-257) was > 100 µM (inactive) and the GI50 (UACC-62) was > 100 µM (inactive). For the same compound, the GI50 (UO-31) was > 100 µM (inactive).

For `CS(=O)(=O)CS(=O)(=O)OCCCl`, the GI50 (786-0) was 61.2 µM (inactive), the GI50 (A498) was 527 µM (inactive) and the GI50 (A549) was 220 µM (inactive). For the same compound, the GI50 (ACHN) was 124 µM (inactive), the GI50 (BT-549) was 99.5 µM (inactive) and the GI50 (CAKI-1) was 207 µM (inactive). The GI50 (CCRF-CEM) was 47 µM (inactive), the GI50 (COLO 205) was 276 µM (inactive) and the GI50 (DLD-1) was 333 µM (inactive). For the same compound, the GI50 (DMS-114) was 86.7 µM (inactive), the GI50 (DMS-273) was 236 µM (inactive) and the GI50 (DU-145) was 199 µM (inactive). For the same compound, the GI50 (EKVX) was 366 µM (inactive), the GI50 (HCC 2998) was 301 µM (inactive) and the GI50 (HCT-116) was 166 µM (inactive). For the same compound, the GI50 (HCT-15) was 209 µM, the GI50 (HL-60) was 136 µM (inactive) and the GI50 (HOP-18) was 438 µM (inactive). The GI50 (HOP-62) was 43.3 µM (inactive), the GI50 (HOP-92) was 119 µM (inactive) and the GI50 (HT-29) was 427 µM (inactive). The GI50 (Hs-578T) was 272 µM (inactive), the GI50 (IGROV-1) was 252 µM (inactive) and the GI50 (K562) was 216 µM (inactive). The GI50 (KM-20L2) was 565 µM (inactive), the GI50 (KM12) was 339 µM (inactive) and the GI50 (LOX IMVI) was 37.8 µM (inactive). The GI50 (M14) was 191 µM (inactive), the GI50 (M19-MEL) was 286 µM (inactive) and the GI50 (MCF7) was 229 µM (inactive). The GI50 (MDA-MB-231) was 296 µM (inactive), the GI50 (MDA-MB-435) was 991 µM (inactive) and the GI50 (MDA-N) was 107 µM (inactive). The GI50 (MOLT-4) was 96.2 µM (inactive), the GI50 (Malme-3M) was 356 µM (inactive) and the GI50 (NCI-H226) was 177 µM (inactive). The GI50 (NCI-H23) was 143 µM (inactive), the GI50 (NCI-H460) was 83.6 µM (inactive) and the GI50 (NCI-H522) was 206 µM (inactive). For the same compound, the GI50 (NCI/ADR-RES) was 324 µM (inactive), the GI50 (OVCAR-3) was 264 µM (inactive) and the GI50 (OVCAR-4) was 403 µM (inactive). For the same compound, the GI50 (OVCAR-5) was 621 µM (inactive), the GI50 (OVCAR-8) was 191 µM (inactive) and the GI50 (PC-3) was 348 µM (inactive). The GI50 (RPMI-8226) was 198 µM (inactive), the GI50 (RXF 393) was 163 µM (inactive) and the GI50 (SF-268) was 47.9 µM (inactive). For the same compound, the GI50 (SF-295) was 60.8 µM (inactive), the GI50 (SF-539) was 50.4 µM (inactive) and the GI50 (SK-MEL-28) was 490 µM (inactive). The GI50 (SK-MEL-2) was 304 µM (inactive), the GI50 (SK-MEL-5) was 211 µM (inactive) and the GI50 (SK-OV-3) was 167 µM (inactive). The GI50 (SN12C) was 188 µM (inactive), the GI50 (SNB-19) was 96.4 µM (inactive) and the GI50 (SNB-75) was 46.8 µM (inactive). The GI50 (SNB-78) was 96.8 µM (inactive), the GI50 (SR) was 15.8 µM (inactive) and the GI50 (SW-620) was 115 µM (inactive). For the same compound, the GI50 (T47D) was 218 µM (inactive), the GI50 (TK-10) was 465 µM (inactive) and the GI50 (U-251) was 72.3 µM (inactive). For the same compound, the GI50 (UACC-257) was 169 µM (inactive), the GI50 (UACC-62) was 29.5 µM (inactive) and the GI50 (UO-31) was 348 µM (inactive).
